Measured values as given in the supplement of paper PMC13207355.

Tests used:
Conditions in all cases: exposure time: 72 h
E13 [1] = patient-derived glioblastoma stem cells of classical subtype; test: surviving fraction (nuclei count normalised to DMSO); higher = more cells surviving (less toxic)
E21 [2] = patient-derived glioblastoma stem cells of mesenchymal subtype; test: as above
E28 [3] = patient-derived glioblastoma stem cells of classical subtype; test: as above
E31 [4] = patient-derived glioblastoma stem cells of proneural subtype; test: as above
E34 [5] = patient-derived glioblastoma stem cells of proneural subtype; test: as above
E57 [6] = patient-derived glioblastoma stem cells of mesenchymal subtype; test: as above
FT3469 [7] = normal neural stem cell line; test: as above
E13 [8] = test: phenotypic distance (Euclidean, principal components) from DMSO controls (arbitrary units); higher = stronger morphological change
E21 [9] = test: as above
E28 [10] = test: as above
E31 [11] = test: as above
E34 [12] = test: as above
E57 [13] = test: as above
FT3469 [14] = test: as above
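Wherever phenotypic distance (Euclidean, principal components) from DMSO controls is given: cell Painting imaging in 384-well plates, CellProfiler features reduced to at least 20 principal components, Euclidean distance versus same-plate DMSO vehicle wells (0.1% v/v), median over six images per well.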
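Wherever surviving fraction (nuclei count normalised to DMSO) is given: nuclei counted by high-content imaging of Hoechst-stained cells in laminin-coated 384-well plates, relative to 0.1% DMSO vehicle wells, with staurosporine as cell-death control.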

Question: Which results are given for `Nc1ccn([C@H]2CC[C@@H](CO)O2)c(=O)n1` [Zalcitabine]?
Answer: surviving fraction (E13 [1]; 4.1 nM): 0.88; surviving fraction (E13 [1]; 12.3 nM): 1.02; surviving fraction (E13 [1]; 37 nM): 1.01; surviving fraction (E13 [1]; 111.1 nM): 0.953; surviving fraction (E13 [1]; 333.3 nM): 0.94; surviving fraction (E13 [1]; 1000 nM): 1.01; surviving fraction (E13 [1]; 3000 nM): 0.913; surviving fraction (E21 [2]; 4.1 nM): 0.917; surviving fraction (E21 [2]; 12.3 nM): 0.894; surviving fraction (E21 [2]; 37 nM): 1.08; surviving fraction (E21 [2]; 111.1 nM): 0.99; surviving fraction (E21 [2]; 333.3 nM): 0.9; surviving fraction (E21 [2]; 1000 nM): 0.987; surviving fraction (E21 [2]; 3000 nM): 0.979; surviving fraction (E28 [3]; 4.1 nM): 1.04; surviving fraction (E28 [3]; 12.3 nM): 1.04; surviving fraction (E28 [3]; 37 nM): 0.97; surviving fraction (E28 [3]; 111.1 nM): 1.13; surviving fraction (E28 [3]; 333.3 nM): 1.01; surviving fraction (E28 [3]; 1000 nM): 1.12; surviving fraction (E28 [3]; 3000 nM): 0.87; surviving fraction (E31 [4]; 4.1 nM): 0.933; surviving fraction (E31 [4]; 12.3 nM): 1.11; surviving fraction (E31 [4]; 37 nM): 0.978; surviving fraction (E31 [4]; 111.1 nM): 1.13; surviving fraction (E31 [4]; 333.3 nM): 0.919; surviving fraction (E31 [4]; 1000 nM): 0.885; surviving fraction (E31 [4]; 3000 nM): 0.972; surviving fraction (E34 [5]; 4.1 nM): 0.869; surviving fraction (E34 [5]; 12.3 nM): 0.954; surviving fraction (E34 [5]; 37 nM): 1.05; surviving fraction (E34 [5]; 111.1 nM): 0.887; surviving fraction (E34 [5]; 333.3 nM): 0.896; surviving fraction (E34 [5]; 1000 nM): 0.977; surviving fraction (E34 [5]; 3000 nM): 0.802; surviving fraction (E57 [6]; 4.1 nM): 1.06; surviving fraction (E57 [6]; 12.3 nM): 0.945; surviving fraction (E57 [6]; 37 nM): 0.991; surviving fraction (E57 [6]; 111.1 nM): 1.09; surviving fraction (E57 [6]; 333.3 nM): 0.982; surviving fraction (E57 [6]; 1000 nM): 1.02; surviving fraction (E57 [6]; 3000 nM): 1.05; surviving fraction (FT3469 [7]; 4.1 nM): 1.11; surviving fraction (FT3469 [7]; 12.3 nM): 1.03; surviving fraction (FT3469 [7]; 37 nM): 0.953; surviving fraction (FT3469 [7]; 111.1 nM): 1.1; surviving fraction (FT3469 [7]; 333.3 nM): 1.02; surviving fraction (FT3469 [7]; 1000 nM): 1.11; surviving fraction (FT3469 [7]; 3000 nM): 0.989; phenotypic distance (E13 [8]; 4.1 nM): 0.723; phenotypic distance (E13 [8]; 12.3 nM): 0.719; phenotypic distance (E13 [8]; 37 nM): 0.578; phenotypic distance (E13 [8]; 111.1 nM): 0.722; phenotypic distance (E13 [8]; 333.3 nM): 0.483; phenotypic distance (E13 [8]; 1000 nM): 0.498; phenotypic distance (E13 [8]; 3000 nM): 0.729; phenotypic distance (E21 [9]; 4.1 nM): 0.578; phenotypic distance (E21 [9]; 12.3 nM): 0.976; phenotypic distance (E21 [9]; 37 nM): 0.36; phenotypic distance (E21 [9]; 111.1 nM): 0.783; phenotypic distance (E21 [9]; 333.3 nM): 0.577; phenotypic distance (E21 [9]; 1000 nM): 0.331; phenotypic distance (E21 [9]; 3000 nM): 0.684; phenotypic distance (E28 [10]; 4.1 nM): 0.369; phenotypic distance (E28 [10]; 12.3 nM): 0.351; phenotypic distance (E28 [10]; 37 nM): 0.756; phenotypic distance (E28 [10]; 111.1 nM): 0.552; phenotypic distance (E28 [10]; 333.3 nM): 0.598; phenotypic distance (E28 [10]; 1000 nM): 0.381; phenotypic distance (E28 [10]; 3000 nM): 0.783; phenotypic distance (E31 [11]; 4.1 nM): 0.62; phenotypic distance (E31 [11]; 12.3 nM): 0.852; phenotypic distance (E31 [11]; 37 nM): 0.398; phenotypic distance (E31 [11]; 111.1 nM): 0.47; phenotypic distance (E31 [11]; 333.3 nM): 0.46; phenotypic distance (E31 [11]; 1000 nM): 0.667; phenotypic distance (E31 [11]; 3000 nM): 0.528; phenotypic distance (E34 [12]; 4.1 nM): 0.915; phenotypic distance (E34 [12]; 12.3 nM): 0.593; phenotypic distance (E34 [12]; 37 nM): 0.379; phenotypic distance (E34 [12]; 111.1 nM): 0.902; phenotypic distance (E34 [12]; 333.3 nM): 1.02; phenotypic distance (E34 [12]; 1000 nM): 0.999; phenotypic distance (E34 [12]; 3000 nM): 0.863; phenotypic distance (E57 [13]; 4.1 nM): 1.83; phenotypic distance (E57 [13]; 12.3 nM): 0.448; phenotypic distance (E57 [13]; 37 nM): 0.547; phenotypic distance (E57 [13]; 111.1 nM): 0.703; phenotypic distance (E57 [13]; 333.3 nM): 0.624; phenotypic distance (E57 [13]; 1000 nM): 0.55; phenotypic distance (E57 [13]; 3000 nM): 0.703; phenotypic distance (FT3469 [14]; 4.1 nM): 3.61; phenotypic distance (FT3469 [14]; 12.3 nM): 0.392; phenotypic distance (FT3469 [14]; 37 nM): 0.547; phenotypic distance (FT3469 [14]; 111.1 nM): 0.849; phenotypic distance (FT3469 [14]; 333.3 nM): 0.603; phenotypic distance (FT3469 [14]; 1000 nM): 0.632; phenotypic distance (FT3469 [14]; 3000 nM): 0.569
